# Key:
# [1] = tested on: Puccinia recondita f. sp. tritici; test: Puccinia recondita f. sp. tritici / wheat / leaf disc preventative (brown rust); format: in vivo; settings: foliar, wheat leaf segments cv. Kanzler, compared to untreated control leaf disks, read-out: disease control
# Procedure: Puccinia recondita f. sp. tritici/Wheat/Leaf Disc Preventative (Brown Rust) Wheat leaf segments cv. Kanzler were placed on agar in multiwell plates (24-well format) and sprayed with the formulated test compound diluted in water. The leaf disks were inoculated with a spore suspension of the fungus 1 day after application. The inoculated leaf segments were incubated at 19° C. and 75% rh under a light regime of 12 h light/12 h darkness in a climate cabinet and the activity of a compound was assessed as percent disease control compared to untreated when an appropriate level of disease damage appears in untreated check leaf segments (7-9 days after application).
# [2] = tested on: Puccinia recondita f. sp. tritici; test: Puccinia recondita f. sp. tritici / wheat / leaf disc curative (brown rust); format: in vivo; settings: foliar, 24 h, wheat leaf segments cv. Kanzler, curative (applied 1 day after inoculation), compared to untreated control leaf disks, read-out: disease control
# Procedure: Puccinia recondita f. sp. tritici/Wheat/Leaf Disc Curative (Brown Rust) Wheat leaf segments cv. Kanzler are placed on agar in multiwell plates (24-well format). The leaf segments are inoculated with a spore suspension of the fungus. Plates were stored in darkness at 19° C. and 75% rh. The formulated test compound diluted in water was applied 1 day after inoculation.
# [3] = tested on: Blumeria graminis f. sp. tritici (Erysiphe graminis f. sp. tritici); test: Blumeria graminis f. sp. tritici / wheat / leaf disc preventative (powdery mildew on wheat); format: in vivo; settings: foliar, wheat leaf segments cv. Kanzler, compared to untreated control leaf disks, read-out: disease control
# From the text: Blumeria graminis f. sp. tritici (Erysiphe graminis f. sp. tritici)/Wheat/Leaf Disc Preventative (Powdery Mildew on Wheat) Wheat leaf segments cv. Kanzler were placed on agar in a multiwell plate (24-well format) and sprayed with the formulated test compound diluted in water. The leaf disks were inoculated by shaking powdery mildew infected plants above the test plates 1 day after application.
# Phakopsora pachyrhizi = Phakopsora pachyrhizi / soybean / leaf disk preventative (soybean rust); format: in vivo; settings: foliar, soybean leaf disks, compared to untreated control leaf disks, read-out: disease control
# Procedure: Phakopsora pachyrhizi/Soybean/Leaf Disk Preventative (Soybean Rust) Four-week old soybean plants are sprayed in a spray chamber with the formulated test compound diluted in water. Leaf disks are cut from treated plants and placed on agar into 24-well plates one day after application. Leaf disks are inoculated by spraying them with a spore suspension on their lower leaf surface. After an incubation period in a climate cabinet of 24-36 hours in darkness at 20° C. and 75% rh, the leaf disks are then kept at 20° C. with 12 h light/day and 75% rh. The percentage leaf disk area covered by disease is assessed when an appropriate level of disease appears on untreated check plants (12-14 days after application).
SMILES,melting point [°C],pest or weed control at 200 ppm [1] [%],pest or weed control at 200 ppm [2] [%],pest or weed control at 200 ppm [3] [%],pest or weed control at 200 ppm (Phakopsora pachyrhizi) [%]
COc1cc(/N=C/N(C)C(C)C)c(C)cc1[C@@](O)(c1ccccc1)C(F)(F)F [Compound E1.026],110.5 to 111.7,≥ 80,≥ 80,≥ 80,≥ 80
CCN(C)/C=N/c1cc(OC)c(C(O)(Cc2ccc(Cl)cc2)C(F)(F)F)cc1C (stereo not shown) [Compound E1.090],63 to 65,–,≥ 80,≥ 80,≥ 80
CCN(C)/C=N/c1cc(OC)c(C(O)(c2cccc(OC(F)F)c2)C(F)(F)F)cc1C (stereo not shown) [Compound E1.044],119 to 121,–,≥ 80,≥ 80,≥ 80
C=C(C)CC(O)(c1cc(C)c(/N=C/N(C)C(C)C)cc1OC)C(F)(F)F (stereo not shown) [Compound E1.082],90 to 95,≥ 80,≥ 80,≥ 80,≥ 80
CCN(C)/C=N/c1cc(OC)c(C(O)(CC)c2ccccc2)cc1C (stereo not shown) [Compound E1.126],87 to 89,≥ 80,≥ 80,≥ 80,≥ 80
CCN(C)/C=N/c1cc(OC)c(C(O)(c2ccccc2)C(C)C)cc1C (stereo not shown) [Compound E1.124],82 to 84,≥ 80,≥ 80,–,≥ 80
CCN(C)/C=N/c1cc(OC)c(C(O)(Cc2cccc(OC)n2)C(F)(F)F)cc1C (stereo not shown) [Compound E1.100],92 to 95,≥ 80,≥ 80,≥ 80,≥ 80
COc1cc(/N=C/N(C)C(C)C)c(C)cc1C(O)(C(C)C)C(F)(F)F (stereo not shown) [Compound E1.067],78 to 79,≥ 80,≥ 80,≥ 80,≥ 80
CCOC(=O)c1ccc(C(O)(c2cc(C)c(/N=C/N(C)CC)cc2OC)C(F)(F)F)cc1 (stereo not shown) [Compound E1.039],118 to 120,–,≥ 80,≥ 80,–
CCN(C)/C=N/c1cc(OC)c(C(O)(Cc2cc(C)nc(OC)n2)C(F)(F)F)cc1C (stereo not shown) [Compound E1.094],117 to 119,≥ 80,≥ 80,≥ 80,–
CCN(C)/C=N/c1cc(OC)c(C(O)(c2ccc(OC)nc2)C(F)(F)F)cc1C (stereo not shown) [Compound E1.107],100 to 102,≥ 80,≥ 80,≥ 80,–
CCN(C)/C=N/c1cc(OC)c(C(O)(c2ccc(SC)cc2)C(F)(F)F)cc1C (stereo not shown) [Compound E1.041],89 to 91,–,≥ 80,≥ 80,–
CCN(C)/C=N/c1cc(OC)c(C(O)(c2ccccc2)C(C)(C)C)cc1C (stereo not shown) [Compound E1.125],90 to 92,≥ 80,≥ 80,–,≥ 80
CCN(C)/C=N/c1cc(OC)c(C(O)(C#Cc2ccccc2)C(F)(F)F)cc1C (stereo not shown) [Compound E1.073],88 to 90,≥ 80,–,–,–
CCN(C)/C=N/c1cc(OC)c(C(O)(c2ccc(OC(F)F)cc2)C(F)(F)F)cc1C (stereo not shown) [Compound E1.045],85 to 87,–,≥ 80,≥ 80,≥ 80
CCN(C)/C=N/c1cc(OC)c(C(O)(c2ccccc2SC)C(F)(F)F)cc1C (stereo not shown) [Compound E1.032],104 to 106,≥ 80,≥ 80,≥ 80,–
CCN(C)/C=N/c1cc(OC)c(C(O)(c2ccccc2S(C)(=O)=O)C(F)(F)F)cc1C (stereo not shown) [Compound E1.036],177 to 180,≥ 80,≥ 80,–,–
CCOc1cc(/N=C/N(C)CC)c(C)cc1C(O)(c1ccccc1)C(F)(F)F (stereo not shown) [Compound E1.002],148 to 151,≥ 80,≥ 80,–,≥ 80
COc1cc(/N=C/N(C)C(C)C)c(C)cc1C(O)(c1ccccc1)C(F)(F)F (stereo not shown) [Compound E1.009],110 to 111,≥ 80,≥ 80,–,–

# Now from value to compound, other results behind:
melting point [°C],SMILES,pest or weed control at 200 ppm [1] [%],pest or weed control at 200 ppm [2] [%],pest or weed control at 200 ppm [3] [%],pest or weed control at 200 ppm (Phakopsora pachyrhizi) [%]
114 to 116,CCN(C)/C=N/c1cc(OC)c(C(O)(c2ccccc2Br)C(F)(F)F)cc1C (stereo not shown) [Compound E1.035],≥ 80,≥ 80,≥ 80,≥ 80
125 to 127,CCN(C)/C=N/c1cc(OC)c(C(O)(c2cccc(C)c2)C(F)(F)F)cc1C (stereo not shown) [Compound E1.016],≥ 80,≥ 80,≥ 80,≥ 80
97 to 100,CCN(C)/C=N/c1cc(OC)c(C(O)(c2ccccc2Cl)C(F)(F)F)cc1C (stereo not shown) [Compound E1.033],≥ 80,≥ 80,≥ 80,≥ 80
124 to 126,CCN(C)/C=N/c1cc(OC)c(C(O)(c2ccc(C(F)(F)F)cc2)C(F)(F)F)cc1C (stereo not shown) [Compound E1.019],≥ 80,≥ 80,≥ 80,–
121 to 123,CCN(C)/C=N/c1cc(OC)c(C(O)(c2cccc(C(F)(F)F)c2)C(F)(F)F)cc1C (stereo not shown) [Compound E1.010],≥ 80,≥ 80,≥ 80,≥ 80
126 to 128,CCN(C)/C=N/c1cc(OC)c(C(O)(C(F)(F)F)C(F)(F)F)cc1C [Compound E1.001],≥ 80,≥ 80,≥ 80,≥ 80
130 to 132,CCN(C)/C=N/c1cc(OC)c(C(O)(c2cccc(F)c2)C(F)(F)F)cc1C (stereo not shown) [Compound E1.029],≥ 80,≥ 80,≥ 80,≥ 80
64 to 66,CCN(C)/C=N/c1cc(OC)c(C(O)(c2ccc(SC(F)(F)F)cc2)C(F)(F)F)cc1C (stereo not shown) [Compound E1.037],–,≥ 80,≥ 80,≥ 80
113 to 114,CCN(C)/C=N/c1cc(OC)c(C(O)(c2ccc(F)cc2F)C(F)(F)F)cc1C (stereo not shown) [Compound E1.018],≥ 80,≥ 80,≥ 80,≥ 80
127 to 129,CCN(C)/C=N/c1cc(OC)c(C(O)(c2ccc(Br)cc2)C(F)(F)F)cc1C (stereo not shown) [Compound E1.025],≥ 80,≥ 80,≥ 80,–
102 to 104,CCN(C)/C=N/c1cc(OC)c(C(O)(c2ccc(F)cc2)C(F)(F)F)cc1C (stereo not shown) [Compound E1.004],≥ 80,≥ 80,≥ 80,≥ 80
73 to 76,CCC(O)(c1cc(C)c(/N=C/N(C)C(C)C)cc1OC)C(F)(F)F (stereo not shown) [Compound E1.063],≥ 80,≥ 80,≥ 80,≥ 80
240 to 242,CCN(C)/C=N/c1cc(OC)c(C(O)(c2ccc(O)cc2)C(F)(F)F)cc1C (stereo not shown) [Compound E1.043],–,≥ 80,≥ 80,–
134 to 135,CCN(C)/C=N/c1cc(OC)c(C(O)(c2ccc(Cl)cc2)C(F)(F)F)cc1C (stereo not shown) [Compound E1.021],≥ 80,≥ 80,≥ 80,–
